The assay deals with T1, VirF (Shigella flexneri, UniProt P0A2T1).
T1 construct: full ORF in pET15b, His-tagged (tag apparently kept)
The assay is described as follows: ELISA, fatty acid coated on plate, His-VirF detected by anti-His antibody. The assay is classed as binding. The settings on record: read-out: apparent Kd.

T1 sequence (P0A2T1 whole entry): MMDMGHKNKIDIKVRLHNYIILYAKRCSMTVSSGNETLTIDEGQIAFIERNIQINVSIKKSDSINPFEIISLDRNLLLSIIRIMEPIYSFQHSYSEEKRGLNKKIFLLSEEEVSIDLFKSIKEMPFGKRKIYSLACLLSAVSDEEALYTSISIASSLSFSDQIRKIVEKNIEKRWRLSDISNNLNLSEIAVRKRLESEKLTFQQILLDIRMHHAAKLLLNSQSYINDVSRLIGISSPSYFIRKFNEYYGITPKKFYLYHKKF

As to `CCCCCCCCCCCCCCCCC/C=C\C(=O)O` [c2-EA], the Kd was 11.2 µM.

With `CCCCCCCCCCCCC/C=C\C(=O)O` [c2-HDA], the Kd is 8.2 µM. Take `CCCCCCCC/C=C\CCCCCCCC(=O)O` [oleic acid]: the Kd came out at 14.3 µM. In the case of `CCCCCC/C=C\CCCCCCCC(=O)O` [palmitoleic acid], the Kd was 12.9 µM.

In the case of `CCCCCCCCCCCCC/C=C/C(=O)O` [t2-HDA], the Kd turned out to be 9.5 µM.

(Values after article PMC10519361, “Shigella flexneri utilizes intestinal signals to control its virulence” (Gut Microbes, 2023).)
